The record followed here is patent publication US7074801B1, “Nitrogen-containing condensed cyclic compound having a pyrazolyl group as a substituent group and pharmaceutical composition thereof” (Eisai Co., Ltd., priority 2001, dated 2006).

Structures are written as SMILES. Where a name gives a salt, the structure may show the parent alone.

The assay concerns STAT6. Description: Inhibitory test on STAT6 activation: IL-4-induced alkali phosphatase STAT6 reporter in 293 cells stably expressing the STAT6 gene and STAT6 reporter gene. Particulars: HEK293; Table 2; 1 ng/ml human recombinant IL-4, 16 hours, 293 cells with STAT6 reporter; read-out: Inhibitory activity IC50 (concentration at which the alkali phosphatase activity induced by IL-4 was inhibited by 50%). In kind it is cell-based. In a few lines:
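HEK293 clone stably carrying STAT6 and a STAT6-element-driven alkaline phosphatase reporter, 5000 cells/well. Compound (DMSO ≤0.1%) plus 1 ng/ml human IL-4 for 16 hours. Supernatant heat-treated 65° C. 10 minutes, then alkaline phosphatase measured fluorometrically in carbonate buffer.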
(In general: In a reporter assay the amount or activity of a reporter protein is the signal.)

On to `CS(=O)(=O)c1cccc(N2CCCN(c3ncnc4ccc(-c5cn[nH]c5)cc34)CC2)c1` [Example 1002, 4-{4-(3-Methylsulfonyl)phenyl}-1,4-diazepan-1-yl}-6-(1H-4-pyrazolyl)quinazoline hydrochloride], for which the IC50 was in the range of 10 to 100 nM.
`N#Cc1cc(N2CCN(c3ncnc4ccc(-c5cn[nH]c5)cc34)CC2)ccc1F` [Example 1007, 2-Fluoro-5-{4-[6-(1H-4-pyrazolyl)-4-quinazolinyl]piperazin-1-yl}benzonitrile hydrochloride]: the IC50 was 10 to 100 nM.
`CS(=O)(=O)c1ccc(OC2CCN(c3ccnc4ccc(-c5cn[nH]c5)cc34)CC2)c(F)c1` [Example 1032, 4-[4-(2-Fluoro-4-methylsulfonylphenoxy)-piperidin-1-yl]-6-(1H-pyrazol-4-yl)quinoline trihydrochloride]: the IC50 lay within 10 to 100 nM.
To `O=S(=O)(c1ccc(OC2CCN(c3ccnc4ccc(-c5c[nH]nc5C(F)(F)F)cc34)CC2)cc1)C(F)(F)F` [Example 1034, 4-[4-(4-Trifluoromethylsulfonylphenoxy)piperidin-1-yl]-6-(3-trifluoromethyl-1H-pyrazol-4-yl)quinoline trihydrochloride] belongs 10 to 100 nM.
The same measure for `Cc1cc(-c2ccnc3ccc(-c4c[nH]nc4C(F)(F)F)cc23)on1` [Example 1070, 4-(3-Methylisoxazol-5-yl)-6-(3-trifluoromethyl-1H-pyrazol-4-yl) quinoline]: 10 to 100 nM.
